From the supplement of paper PMC10307832

Legend:
Assay in all cases: relative viability (nuclei count vs DMSO), 5 days (fraction); higher = more cells survive
[1] = compound: C1COCCN1C2=NC(=NC3=C2OC4=C3C=CC=N4)C5=CC(=CC=C5)NC(=O)C6=CN=C(C=C6)N + CC1(C)CCC(c2ccc(Cl)cc2)=C(CN2CCN(c3ccc(C(=O)NS(=O)(=O)c4ccc(N[C@H](CCN5CCOCC5)CSc5ccccc5)c(S(=O)(=O)C(F)(F)F)c4)cc3)CC2)C1 [Navitoclax] (partner 0.5 µM)
Procedure, shortened: (§1)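 Lung cancer cell lines, seeded in 1536-well plates, were treated the following day by pin tool with a single drug or with five library-drug doses (not always all listed) in √10 steps on top of a fixed anchor-drug dose. Cells were fixed and nuclei stained in one step after 5 days, and nuclei were counted. Relative viability is the nuclei count for treated wells divided by that for vehicle wells, reported as medians of duplicate plates.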

[2] = compound: CN1CCC(CNc2ccc3ncc(-c4cccc(OC(F)(F)F)c4)n3n2)CC1 [SGI-1776] + COc1cccc2cc(-c3nc([C@H]4CC[C@H](C(=O)O)CC4)n4ncnc(N)c34)[nH]c12 [OSI-027] (partner 0.5 µM)
Procedure, shortened: as §1

[3] = compound: Nc1ccccc1NC(=O)c1ccc(CNC(=O)OCc2cccnc2)cc1 [Entinostat] + C[C@]1(O)C[C@@H](c2nc(-c3ccc4ccc(-c5ccccc5)nc4c3)c3c(N)nccn32)C1 [Linsitinib] (partner 1 µM)
Procedure, shortened: as §1

[4] = compound: Nc1ccccc1NC(=O)c1ccc(CNC(=O)OCc2cccnc2)cc1 [Entinostat] + CC(=O)Nc1cccc(-n2c(=O)n(C3CC3)c(=O)c3c(Nc4ccc(I)cc4F)n(C)c(=O)c(C)c32)c1 [Trametinib] (partner 0.02 µM)
Procedure, shortened: as §1

Cell Line	relative viability ([1]; first compound 0.02 µM)	relative viability ([1]; first compound 0.06325 µM)	relative viability ([1]; first compound 0.2 µM)	relative viability ([1]; first compound 0.6325 µM)	relative viability ([1]; first compound 2 µM)	relative viability ([2]; first compound 0.08 µM)	relative viability ([2]; first compound 0.8 µM)	relative viability ([2]; first compound 2.53 µM)	relative viability ([2]; first compound 8 µM)	relative viability ([3]; first compound 0.02 µM)	relative viability ([3]; first compound 0.06325 µM)	relative viability ([3]; first compound 0.2 µM)	relative viability ([3]; first compound 0.6325 µM)	relative viability ([3]; first compound 2 µM)	relative viability ([4]; first compound 0.02 µM)	relative viability ([4]; first compound 0.06325 µM)	relative viability ([4]; first compound 0.2 µM)	relative viability ([4]; first compound 0.6325 µM)	relative viability ([4]; first compound 2 µM)
NCI-H2228	0.959	1.31	0.783	1.3	0.348	0.644	0.582	0.425	0.275	0.587	0.635	0.578	0.365	0.354	0.466	0.587	0.524	0.224	0.183
H3255	0.54	0.553	0.533	0.421	0.467	0.65	0.643	0.651	0.555	0.892	0.87	0.765	0.507	0.304	0.681	0.57	0.528	0.402	0.295
HCC-15	0.678	0.786	0.684	0.605	0.452	0.655	0.651	0.559	0.437	0.82	0.8	0.713	0.546	0.319	0.392	0.323	0.245	0.221	0.161
NCI-H727	0.351	0.501	0.343	0.357	0.337	0.543	0.627	0.615	0.438	0.306	0.344	0.35	0.255	0.0975	0.368	0.365	0.347	0.331	0.273
NCI-H2023	1.05	1.03	0.967	0.904	0.444	0.415	0.388	0.319	0.167	0.671	0.778	0.48	0.191	0.133	0.467	0.473	0.226	0.127	0.0998
HCC-44	1.08	1.15	1.08	1	0.571	0.672	0.493	0.407	0.28	0.676	0.474	0.357	0.27	0.197	1.07	0.895	0.81	0.735	0.625
COR-L23	1.14	1.1	1.05	1.13	0.666	0.781	0.87	0.74	0.582	0.829	0.763	0.748	0.416	0.132	0.507	0.614	0.544	0.318	0.189
EMC-BAC-2	1.21	1.28	1.26	1.12	0.984	0.355	0.371	0.363	0.319	0.837	0.915	0.983	0.731	0.487	0.868	0.713	0.578	0.489	0.383
